Results on five substances are retold here after patent US20250052769A1, “MIMOTOPES OF ARA H 2 AND USES OF THE SAME TO DIAGNOSE PEANUT ALLERGIES” (The Regents of the University of Colorado, A Body Corporate, priority 2023, published 2025).

Experiment [1] concerns Ara h 2-specific IgE. Description: Peptide microarray of serum IgE binding (dose response and alanine scans). Further details: species or system human. From the text: (§1) To produce the serum pool, 10 individual sera were pooled with the concentration of Ara h 2-sIgE normalized so that no one serum was predominant (Table 2). Seven sera were studied in detail, 3 of these were included in the serum pool and 4 independent of the serum pool (Table 2). The Colorado Multiple Institutional Review Board (COMIRB) approved this study. All adult patients and the parents or guardians of minors gave written informed consent. Minors who were >6 years of age, signed an assent.
(§2) Peptides for ELISAs were synthesized with an N-terminal linker arm (Ttds; JPT Peptides, Berlin) followed by biotin at the N terminus. Prior to generating microarrays with high fidelity sequences, we performed screening assays using the Biotide approach (JPT Peptides, Berlin) in which multiple related peptides are synthesized in a cost-effective manner at approximately 20% purity. For validation, selected peptides were also synthesized by standard methods and purified (95-97% pure) by HPLC (JPT Laboratories, Berlin). For all peptides of epitope 3 and the related mimotope studied here, trans-4-hydroxyproline (h) was substituted for second proline in the DPY_P motif as this substitution may enhance binding of IgE. Peptides for microarray assays were synthesized with the Ttds linker arm on the N terminus and printed onto microscope slides treated with a proprietary 3-dimensional surface by JPT Peptides (Berlin).
Each microscope slide contained 21 microarrays and within each microarray, peptides were printed in triplicate. 10-15 spots were not printed with any peptide as control spots. Sera were diluted to contain the same concentrations of Ara h 2-sIgE (usually 10 IU/ml) or at various concentrations for dose response assays and assayed in duplicate arrays on 3-4 separate days as previously described except for use of biotinylated anti-IgE (clone HP6029 from Southern Biotech at 1:1,000). For each microarray assay, the density units of three observations within each microarray were averaged and then the data from duplicate microarrays were averaged. To combine data from multiple independent assays, the signal within each assay was normalized to that of a wild-type peptide and the signal was expressed as a percent of that with the original peptide. Background binding of serum without peptide (300-500 AU) was subtracted. We also examined the background of peptide without serum. Only for the mimotope, this background was higher than the background of serum without peptide and these values (5,000-10,000 AU), which were quite high, were subtracted from the signal of serum with peptide (which bound IgE very strongly (20,000-30,000 AU), instead of subtracting the background of serum without peptide.
Linear sequences of epitope 3 and the mimotope as well as derivative peptides in which each amino acid was sequentially changed to alanine were studied.
(§3) GraphPad Prism (versions 8.4-9.5 for the Macintosh (GraphPad; La Jolla, CA)) was used to generate graphs and for statistical analysis. The following analyses were performed: 1) for dose response curves, multiple unpaired t test with Welch correction for unequal variances; 2) to combine data from multiple assays, the data were normalized within each assay based on IgE binding to the native sequence (epitope 3) or the original sequence (mimotope A147) and expressed binding as percent of binding and 3) to compare differences in IgE binding for a specific alanine substitution, one way ANOVA followed by Dunnet's multiple comparison test.

Experiment [2] relates to Ara h 2-specific IgE. Description: Biotin/streptavidin ELISA of serum IgE binding to peptides. Further details: species or system human. As to conditions: for IgE binding by ELISA, Biotide peptides: serum pool at 10 IU/ml Ara h 2-sIgE, 20-30% pure Biotide peptides at 1 nM, Bt-anti-HuIgE 1:3,000 (FIG. 5A, 6A); for IgE binding by ELISA, purified peptides: serum pool at 10 IU/ml, 95-97% pure peptides at 5 nM, Bt-anti-HuIgE 1:500 (FIG. 5B, 6B).
Text: as §1, §2
Streptavidin (InVitrogen) (5 μg/ml) was bound to micro titer plates by overnight incubation in PBS, the plates were washed once with PBST (0.05% Tween 20) and 50 μL of peptides were added at a final concentration of 1-5 nM in PBST for 1 hour at room temperature. Unoccupied streptavidin sites were then saturated with 400 μM biotin in PBS and the samples were probed with diluted sera from allergic subjects diluted in PBST with 0.1% albumin to contain 10 IU/ml of Ara h 2-sIgE. After overnight incubation at 4° C., slides were washed, incubated with HRP-labeled murine monoclonal anti-human IgE (clone HP6029; Southern Biotech 1:500-1:3,000), washed again and developed with TMB (ThermoFisher Scientific). Background binding of serum without peptide (OD=approximately 0.100) was subtracted. We also examined the background of peptide without serum and this was similar to, or lower than, the background of serum without peptide.
as §3

Entries after “also recorded” stand apart in the source; their conditions may differ. Non-standard residues stand in square brackets, D forms with d. No end group written: not given here. Hyp = O=C(O)[C@@H]1C[C@@H](O)CN1

As for “LLDPYAhRAWTK (LLDPYA[Hyp]RAWTK) [mimotope with P->h]”, the “Microarray signal of serum with peptide” value in the experiment with Ara h 2-specific IgE [1] (before background subtraction) was 20,000-30,000 AU. The “IgE binding in microarray format at Ara h 2 sIgE of 0.3 kU/L” value with Ara h 2-specific IgE [1] (serum pool at 0.3 kU/L Ara h 2 sIgE, p<0.05 (FIG. 7)) is listed as “bound significantly more IgE than did Epitope 3-Core”. In addition, the “IgE binding in microarray format, dose response of serum” value in the experiment with Ara h 2-specific IgE [1] (serum pool at various doses, P substituted with h in all peptides (FIG. 7)) is recorded as “tended to bind more IgE at lower doses of serum”. Moreover, the results for the “IgE binding by ELISA, Biotide peptides” value in the experiment on Ara h 2-specific IgE [2] and in the experiment with Ara h 2-specific IgE [2] (listed as SEQ ID NO:2) were “bound more IgE at all doses than did the original mimotope” and “binding was dramatically enhanced”, respectively. In addition, the “IgE binding by ELISA, purified peptides” value with Ara h 2-specific IgE [2] is “No significant differences were seen”; in the experiment with Ara h 2-specific IgE [2] (listed as SEQ ID NO:2), “bound similar amounts of IgE as did Epitope 3-Core”; in the experiment on Ara h 2-specific IgE [2] (listed as substituted mimotope) it was “bound amounts of IgE similar to that of the Epitope 3-Core peptide”.
Consider “Y10: Epitope 3-Core (DEDSYERDPYShSQDP) with amino acid Y10 changed to alanine (DEDSYERDPAS[Hyp]SQDP)”, for which the “Relevance of the residue for IgE binding, alanine scan of Epitope 3-Core with individual sera” value in the experiment on Ara h 2-specific IgE [1] (7 individual sera (FIG. 2B)) is on record as “relevant for most sera”. In the experiment on Ara h 2-specific IgE [1] (alanine scan of Epitope 3-Core, serum pool at 10 IU/ml Ara h 2-sIgE, percent of WT signal (FIG. 1B)), the “IgE binding after alanine substitution, density units normalized to WT sequence” value came out at 9±6%.
Regarding LLDPYAPRAWTK [A147], in the experiment on Ara h 2-specific IgE [2], the “IgE binding by ELISA, Biotide peptides” value is “did not bind IgE well”.
In the case of “ERDPYShSQDPYShSPYDRR (ERDPYS[Hyp]SQDPYS[Hyp]SPYDRR) [20mer version of epitope 3]”, the “IgE binding by ELISA, purified peptides” value in the experiment on Ara h 2-specific IgE [2] is “bound similar amounts of IgE”.
As for “DEDSYERDPYShSQDP (DEDSYERDPYS[Hyp]SQDP) [Epitope 3-Core]”, in the experiment on Ara h 2-specific IgE [2], the “IgE binding by ELISA, Biotide peptides” value is reported as “bind IgE almost as well as the 20mer sequence” and the “IgE binding by ELISA, purified peptides” value is reported as “bound similar amounts of IgE; also recorded: No significant differences were seen; also recorded: strong binding”.
